From patent publication US8273398B2, “Geranylamine derivates of oxalic acid” (Symrise AG, priority 2008, dated 2012)

Key:
[1] = test system: panel of trained testers; assay: Taste profile of the pure substance in saline or sugar solution, tasting by a panel of trained testers; assay type: in vivo, human; settings: for Taste profile: pure substance in saline or sugar solution; for Umami character: own tests, tasting
From the text: The ethyl ester (3) of a partially hydrogenated geranyl derivate has already been described in the literature (Maslozhirovaya Promyshlennost 1983, 4, 26-27). In the context of our own tests the corresponding methyl ester (4) during tasting by a panel of trained testers was described as very neutral; the corresponding methyl amine (5) was assigned fruity notes (see Table 2 contained within the examples of the present text). In the following, selected substances manufactured according to the general instructions described above are presented. In each case the taste profiles have been determined by determining the taste impression of the respective substance as a pure substance in saline or sugar solution and therefore deviate from the taste impressions (in beef extracts) shown in Table 1 and FIG. 1. The following structures are further examples from this substance class, prepared and tasted according to AAV 1 and AAV 2—on the basis of various alcohols and amines.

[2] = Sensory profile in American beef extract base (Table 1, FIG. 1); assay type: in vivo; design: scale not given here
From the text: This is also shown in Table 1 and the spider diagram in FIG. 1, in which an American beef extract as a base is compared with such a base plus the addition of 10 ppm of a compound (I) according to the invention and/or 10 ppm of a compound of formula (II) according to the invention and with such a base plus the addition of 0.05 weight % of MSG (monosodium glutamate).

[3] = test system: panel of trained test persons; assay: Application in green tea drink, tasting panel; assay type: in vivo, human; settings: green tea drink with 0.008 weight % of a 1% solution in propylene glycol
Description: The green tea concentrate is mixed with a 1% solution of N-((E)-3,7-dimethyl-octa-2,6-dienyl)-oxalamide methyl ester (I) in propylene glycol. Then it is topped up with demineralized water and thoroughly mixed again. The product is then filtered, packaged ready for consumption and sterilized at 118° C.

[4] = beef extract + 0.05 weight % MSG

CNC(=O)C(=O)NCCC(C)CCCC(C)C (stereo not shown)
Taste profile [1]: neutral

CCOC(=O)C(=O)NC/C=C(\C)CCC=C(C)C [formula (6), N-((E)-3,7-dimethyl-octa-2,6-dienyl)-oxalic acid amide-ethyl-ester]
Taste profile [1]: musty, herbaceous and chemical

CNC(=O)C(=O)NCC=C(C)C
Taste profile [1]: neutral

CNC(=O)C(=O)NC/C=C(/C)CCC=C(C)C [formula (IV), N-((Z)-3,7-dimethyl-octa-2,6-dienyl)-N′-methyl-oxalamide]
Umami character [1]: do not in fact have any umami character | Taste profile [1]: sour

CC(C)=CCC/C(C)=C/CNC(=O)C(=O)NC/C=C(\C)CCC=C(C)C [formula (1), N,N′-Bis-((E)-3,7-dimethyl-octa-2,6-dienyl)-oxalamide]
Umami character [1]: did not demonstrate any umami character | Taste profile [1]: neutral, slightly hot

CNC(=O)C(=O)NCCC(C)CCC=C(C)C (stereo not shown) [formula (5)]
Taste profile ([1]; listed as (5)): fruity notes | Taste profile ([1]; listed as drawing 24): fruity

N[C@@H](CCC(=O)O)C(=O)[O-].[Na+] [MSG, monosodium glutamate, reference compound]
Baked, roasted [2, 4]: 5.00 | Bitter [2, 4]: 1.35 | Meaty [2, 4]: 5.47 | Metallic [2, 4]: 3.47 | Mouth-watering [2, 4]: 4.53 | Mouthfeel [2, 4]: 5.41 | Salty [2, 4]: 3.29 | Sour [2, 4]: 2.94 | Sweet [2, 4]: 2.41 | Tenacity, long-lasting [2, 4]: 5.06

CNC(=O)C(=O)OC/C=C(\C)CCC=C(C)C
Taste profile [1]: soapy, flowery, per- fumey

COC(=O)C(=O)NCCC(C)CCCC(C)C (stereo not shown)
Taste profile [1]: fatty, bitter, metallic

COC(=O)C(=O)NC/C=C(/C)CCC=C(C)C [formula (III), N-((Z)-3,7-dimethyl-octa-2,6-dienyl)-oxalic acid amide-methyl-ester]
Umami character [1]: do not in fact have any umami character | Taste profile [1]: musty, bitter, long-lasting

COC(=O)C(=O)NCC=C(C)C
Taste profile [1]: taste of its own, sol- vent

CNC(=O)C(=O)NC/C=C(\C)CCC=C(C)C [formula (II), N-((E)-3,7-dimethyl-octa-2,6-dienyl)-N′-methyl-oxalamide]
Baked, roasted ([2]; beef extract + 10 ppm compound): 4.27 | Bitter ([2]; beef extract + 10 ppm compound): 1.00 | Meaty ([2]; beef extract + 10 ppm compound): 5.09 | Metallic ([2]; beef extract + 10 ppm compound): 3.55 | Mouth-watering ([2]; beef extract + 10 ppm compound): 4.14 | Mouthfeel ([2]; beef extract + 10 ppm compound): 4.73 | Salty ([2]; beef extract + 10 ppm compound): 2.82 | Sour ([2]; beef extract + 10 ppm compound): 2.45 | Sweet ([2]; beef extract + 10 ppm compound): 2.27 | Tenacity, long-lasting ([2]; beef extract + 10 ppm compound): 4.64 | Umami character [1]: clear umami taste | Taste profile [1]: meaty, full, metallic, umami

CC(C)=CCC/C(C)=C\CNC(=O)C(=O)NC/C=C(/C)CCC=C(C)C [formula (2), N,N′-Bis-((Z)-3,7-dimethyl-octa-2,6-dienyl)-oxalamide]
Umami character [1]: did not demonstrate any umami character | Taste profile [1]: neutral, slight burning

COC(=O)C(=O)NCCC(C)CCC=C(C)C (stereo not shown) [formula (4)]
Taste profile ([1]; listed as (4)): very neutral | Taste profile ([1]; listed as drawing 23): neutral

CCNC(=O)C(=O)NC/C=C(\C)CCC=C(C)C [formula (7)]
Taste profile ([1]; listed as (7)): very neutral | Taste profile ([1]; listed as drawing 19): neutral

COC(=O)C(=O)NC/C=C(\C)CCC=C(C)C [formula (I), N-((E)-3,7-dimethyl-octa-2,6-dienyl)-oxalic acid amide-methyl-ester]
Baked, roasted ([2]; beef extract + 10 ppm compound): 3.55 | Bitter ([2]; beef extract + 10 ppm compound): 1.36 | Meaty ([2]; beef extract + 10 ppm compound): 4.55 | Metallic ([2]; beef extract + 10 ppm compound): 3.82 | Mouth-watering ([2]; beef extract + 10 ppm compound): 3.64 | Mouthfeel ([2]; beef extract + 10 ppm compound): 4.45 | Salty ([2]; beef extract + 10 ppm compound): 2.64 | Sour ([2]; beef extract + 10 ppm compound): 2.91 | Sweet ([2]; beef extract + 10 ppm compound): 1.36 | Tenacity, long-lasting ([2]; beef extract + 10 ppm compound): 3.73 | Taste compared with the unflavored green tea base [3]: markedly preferable | Umami character [1]: clear umami taste | Taste profile [1]: sweet, full, prickling, umami
